The numbers were not newly measured in patent publication US20250134147A1, “METHODS AND COMPOSITIONS FOR IMPROVED SUGAR-LIKE TASTE” (ALMENDRA (THAILAND) LTD., priority 2021, published 2025), which cites them from elsewhere.

Read-outs that look alike come from different tables or passages of the source.

For data set [1] the following is noted: for sweetness potency, times higher than sucrose: relative to sucrose, Tanaka 1987 / Phillips 1989; for sweetness potency, times more potent than sucrose: sensory evaluations, Crammer and Ikan 1986.
For data set [2] the following is noted: comparison among steviol glycosides.
The conditions of data set [3]: Kinghorn 2002.

As for `C=C1C[C@@]23CC[C@H]4[C@@](C)(CCC[C@@]4(C)C(=O)O[C@@H]4O[C@H](CO)[C@@H](O)[C@H](O)[C@H]4O)[C@@H]2CC[C@]1(O[C@@H]1O[C@H](CO)[C@@H](O)[C@H](O)[C@H]1O[C@@H]1O[C@@H](C)[C@H](O)[C@@H](O)[C@H]1O)C3` [Dulcoside A], the “sweetness potency, times higher than sucrose” value in data set [1] is 30 times. With `C=C1C[C@@]23CC[C@H]4[C@@](C)(CCC[C@@]4(C)C(=O)O[C@@H]4O[C@H](CO)[C@@H](O)[C@H](O)[C@H]4O)[C@@H]2CC[C@]1(O[C@@H]1O[C@H](CO)[C@@H](O)[C@H](O[C@@H]2O[C@H](CO)[C@@H](O)[C@H](O)[C@H]2O)[C@H]1O[C@@H]1O[C@H](CO)[C@@H](O)[C@H](O)[C@H]1O)C3` [Rebaudioside A, (3R,4S,5S,6R)-3,4,5-trihydroxy-6-(hydroxymethyl)tetrahydro-2H-pyran-2-yl(4R,4αS,11αR,11βS)-10-(((2R,3R,5R,6R)-5-hydroxy-6-(hydroxymethyl)-3,4-bis(((2S,3R,4S,5S,6R)-3,4,5-trihydroxy-6-(hydroxymethyl)tetrahydro-2H-pyran-2-yl)oxy)tetrahydro-2H-pyran-2-yl)oxy)-4,11β-dimethyl-8-methylenetetradecahydro-6α,9-methanocyclohepta[a]naphthalene-4-carboxylate], in data set [1], the “sweetness potency, times more potent than sucrose” value is recorded as 350-450 times. For the same compound, the “taste quality / sensory attributes” value is “the least astringent, the least bitter, and the least persistent aftertaste” in data set [2]; “clearly surpasses stevioside and rebaudioside B” in data set [2] (listed as rebaudioside A).

With `C=C1C[C@@]23CC[C@H]4[C@@](C)(CCC[C@@]4(C)C(=O)O)[C@@H]2CC[C@]1(O[C@@H]1O[C@H](CO)[C@@H](O)[C@H](O[C@@H]2O[C@H](CO)[C@@H](O)[C@H](O)[C@H]2O)[C@H]1O[C@@H]1O[C@H](CO)[C@@H](O)[C@H](O)[C@H]1O)C3` [Rebaudioside B, (4R,4αS,6αR,9S,11αR,11βS)-9-(((2S,3R,5R,6R)-5-hydroxy-6-(hydroxymethyl)-4-(((2S,3R,4S,5S,6R)-3,4,5-trihydroxy-6-(hydroxymethyl)tetrahydro-2H-pyran-2-yl)oxy)-3-(((3R,4S,5S,6R)-3,4,5-trihydroxy-6-(hydroxymethyl)tetrahydro-2H-pyran-2-yl)oxy)tetrahydro-2H-pyran-2-yl)oxy)-4,11β-dimethyl-8-methylenetetradecahydro-6α,9-methanocyclohepta[a]naphthalene-4-carboxylic acid], the “sweetness potency, times more potent than sucrose” value in data set [1] is given as 300-350 times. For the same compound, in data set [3], the water solubility entry is listed as “about 0.1%”.

As for `C=C1C[C@@]23CCC4[C@@](C)(CCC[C@@]4(C)C(=O)OC4O[C@H](CO)[C@@H](O)[C@H](O)[C@H]4O)C2CC[C@]1(O[C@@H]1O[C@H](CO)[C@@H](O)[C@H](O[C@@H]2O[C@H](CO)[C@@H](O)[C@H](O)[C@H]2O)[C@H]1O[C@H]1O[C@H](C)[C@@H](O)[C@H](O)[C@@H]1O)C3` (some centres unmarked) [Rebaudioside C], the “sweetness potency, times higher than sucrose” value in data set [1] is 40-60 times. Consider `C=C1C[C@@]23CC[C@H]4[C@@](C)(CCC[C@@]4(C)C(=O)O[C@@H]4O[C@H](CO)[C@@H](O)[C@H](O)[C@H]4O[C@@H]4O[C@H](CO)[C@@H](O)[C@H](O)[C@H]4O)[C@@H]2CC[C@]1(O[C@@H]1O[C@H](CO)[C@@H](O)[C@H](O[C@@H]2O[C@H](CO)[C@@H](O)[C@H](O)[C@H]2O)[C@H]1O[C@@H]1O[C@H](CO)[C@@H](O)[C@H](O)[C@H]1O)C3` [Rebaudioside D], for which, in data set [2], the “taste quality / sensory attributes” value is listed as “very desirable taste profile”.

In the case of `C=C1C[C@@]23CC[C@H]4[C@@](C)(CCC[C@@]4(C)C(=O)O)[C@@H]2CC[C@]1(O[C@@H]1O[C@H](CO)[C@@H](O)[C@H](O)[C@H]1O[C@@H]1O[C@H](CO)[C@@H](O)[C@H](O)[C@H]1O)C3` [Steviolbioside], in data set [2], the “taste quality / sensory attributes” value is given as “significantly inferior to that of stevioside”. `C=C1C[C@@]23CC[C@H]4[C@@](C)(CCC[C@@]4(C)C(=O)O[C@@H]4O[C@H](CO)[C@@H](O)[C@H](O)[C@H]4O)[C@@H]2CC[C@]1(O[C@@H]1O[C@H](CO)[C@@H](O)[C@H](O)[C@H]1O[C@@H]1O[C@H](CO)[C@@H](O)[C@H](O)[C@H]1O)C3` [Stevioside]: the “sweetness potency, times higher than sucrose” value in data set [1] is 110-270 times.

On to `C=C1C[C@@]23CC[C@H]4[C@@](C)(CCC[C@@]4(C)C(=O)O[C@@H]4O[C@H](CO)[C@@H](O)[C@H](O)[C@H]4O)[C@@H]2CC[C@]1(O[C@@H]1O[C@H](CO)[C@@H](O)[C@H](O)[C@H]1O)C3` [rubusoside], for which the “taste quality / sensory attributes” value in data set [2] was “significantly inferior to that of stevioside”.
